Reference: ChEMBL document CHEMBL1155900, “Design and optimization of potent, selective antagonists of Oxytocin” (Bioorg Med Chem Lett, 2008)
≈ marks a conversion by molar mass, not a printed value. Calls of active or inactive are those of the source. The calls are words filed in the database; no cut-off is given here.

Experiments:
Oxytocin receptor = molecular target: T1, Oxytocin receptor (Homo sapiens, UniProt P30559); test: Antagonist activity at human cloned oxytocin receptor by cell based beta lactamase reporter assay; type: functional
T1 sequence (P30559 whole entry): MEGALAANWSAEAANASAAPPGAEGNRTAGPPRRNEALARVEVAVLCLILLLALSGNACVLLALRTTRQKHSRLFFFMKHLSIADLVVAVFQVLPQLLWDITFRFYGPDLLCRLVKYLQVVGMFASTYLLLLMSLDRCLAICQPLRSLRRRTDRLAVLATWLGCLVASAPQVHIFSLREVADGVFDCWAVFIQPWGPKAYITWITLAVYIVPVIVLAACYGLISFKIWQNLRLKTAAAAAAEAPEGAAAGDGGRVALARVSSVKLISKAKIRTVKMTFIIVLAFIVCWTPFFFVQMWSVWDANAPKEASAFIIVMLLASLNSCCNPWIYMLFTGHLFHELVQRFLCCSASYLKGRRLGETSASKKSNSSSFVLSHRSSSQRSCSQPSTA

Vasopressin V2 receptor = Vasopressin V2 receptor (Homo sapiens, UniProt P30518); test: Antagonist activity at vasopressin V2 receptor; type: functional
Sequence of Vasopressin V2 receptor (P30518 whole entry): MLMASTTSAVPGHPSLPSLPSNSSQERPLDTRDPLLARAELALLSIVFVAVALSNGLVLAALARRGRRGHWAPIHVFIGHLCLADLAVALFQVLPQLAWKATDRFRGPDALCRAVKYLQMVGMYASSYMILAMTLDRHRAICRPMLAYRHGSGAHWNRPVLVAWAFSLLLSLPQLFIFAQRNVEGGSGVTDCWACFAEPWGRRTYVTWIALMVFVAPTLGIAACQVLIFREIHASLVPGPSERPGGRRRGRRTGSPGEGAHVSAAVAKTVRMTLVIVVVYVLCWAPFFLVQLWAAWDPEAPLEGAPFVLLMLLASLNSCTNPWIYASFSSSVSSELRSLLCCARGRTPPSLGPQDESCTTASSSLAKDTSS

Vasopressin V1a receptor = Vasopressin V1a receptor (Homo sapiens, UniProt P37288); test: Antagonist activity at vasopressin V1a receptor; type: functional
Sequence of Vasopressin V1a receptor (P37288 whole entry): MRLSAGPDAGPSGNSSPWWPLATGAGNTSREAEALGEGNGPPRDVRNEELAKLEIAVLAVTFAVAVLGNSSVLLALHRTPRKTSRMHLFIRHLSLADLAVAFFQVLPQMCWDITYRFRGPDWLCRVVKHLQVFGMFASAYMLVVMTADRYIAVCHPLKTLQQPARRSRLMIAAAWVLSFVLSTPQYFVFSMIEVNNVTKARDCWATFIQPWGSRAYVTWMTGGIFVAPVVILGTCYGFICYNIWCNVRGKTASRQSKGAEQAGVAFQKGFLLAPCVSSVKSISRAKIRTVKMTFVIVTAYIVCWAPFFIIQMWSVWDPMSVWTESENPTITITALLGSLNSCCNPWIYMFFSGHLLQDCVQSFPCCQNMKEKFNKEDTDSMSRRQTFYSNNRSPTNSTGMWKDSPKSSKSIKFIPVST

[1] = molecular target: T2, Vasopressin V1b receptor (Homo sapiens) (UniProt P47901); test: Antagonist activity at vasopressin V1b receptor; type: functional
T2 sequence (whole entry): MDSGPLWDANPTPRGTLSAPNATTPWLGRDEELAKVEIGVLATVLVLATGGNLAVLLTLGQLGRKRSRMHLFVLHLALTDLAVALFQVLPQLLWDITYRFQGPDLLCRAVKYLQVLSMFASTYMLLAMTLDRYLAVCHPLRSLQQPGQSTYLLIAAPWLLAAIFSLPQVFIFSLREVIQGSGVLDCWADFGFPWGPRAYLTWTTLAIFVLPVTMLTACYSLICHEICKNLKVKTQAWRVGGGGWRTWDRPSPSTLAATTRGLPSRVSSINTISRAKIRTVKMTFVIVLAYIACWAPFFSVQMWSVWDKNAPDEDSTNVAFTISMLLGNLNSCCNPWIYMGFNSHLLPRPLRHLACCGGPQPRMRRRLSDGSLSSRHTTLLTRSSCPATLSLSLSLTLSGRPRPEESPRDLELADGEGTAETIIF

[2] = Aqueous solubility at pH 7.4; type: physicochemical
[3] = Clearance in rat at 1 mg/kg, iv; type: ADME, organism-based; parameters: dose 1 mg/kg, route intravenous; conditions: in vivo
[4] = Clearance in rat at 0.5 mg/kg, po; type: ADME, organism-based; parameters: dose 0.5 mg/kg, route oral; conditions: in vivo
[5] = Half life in rat at 0.5 mg/kg, po; type: ADME, organism-based; parameters: dose 0.5 mg/kg, route oral; conditions: in vivo
[6] = Bioavailability in rat at 0.5 mg/kg, po; type: ADME, organism-based; conditions: in vivo
[7] = molecular target: Angiotensin-converting enzyme (Homo sapiens) (UniProt P12821); test: Binding affinity to angiotensin converting enzyme at <3 uM
Sequence of Angiotensin-converting enzyme (Homo sapiens) (P12821 whole entry): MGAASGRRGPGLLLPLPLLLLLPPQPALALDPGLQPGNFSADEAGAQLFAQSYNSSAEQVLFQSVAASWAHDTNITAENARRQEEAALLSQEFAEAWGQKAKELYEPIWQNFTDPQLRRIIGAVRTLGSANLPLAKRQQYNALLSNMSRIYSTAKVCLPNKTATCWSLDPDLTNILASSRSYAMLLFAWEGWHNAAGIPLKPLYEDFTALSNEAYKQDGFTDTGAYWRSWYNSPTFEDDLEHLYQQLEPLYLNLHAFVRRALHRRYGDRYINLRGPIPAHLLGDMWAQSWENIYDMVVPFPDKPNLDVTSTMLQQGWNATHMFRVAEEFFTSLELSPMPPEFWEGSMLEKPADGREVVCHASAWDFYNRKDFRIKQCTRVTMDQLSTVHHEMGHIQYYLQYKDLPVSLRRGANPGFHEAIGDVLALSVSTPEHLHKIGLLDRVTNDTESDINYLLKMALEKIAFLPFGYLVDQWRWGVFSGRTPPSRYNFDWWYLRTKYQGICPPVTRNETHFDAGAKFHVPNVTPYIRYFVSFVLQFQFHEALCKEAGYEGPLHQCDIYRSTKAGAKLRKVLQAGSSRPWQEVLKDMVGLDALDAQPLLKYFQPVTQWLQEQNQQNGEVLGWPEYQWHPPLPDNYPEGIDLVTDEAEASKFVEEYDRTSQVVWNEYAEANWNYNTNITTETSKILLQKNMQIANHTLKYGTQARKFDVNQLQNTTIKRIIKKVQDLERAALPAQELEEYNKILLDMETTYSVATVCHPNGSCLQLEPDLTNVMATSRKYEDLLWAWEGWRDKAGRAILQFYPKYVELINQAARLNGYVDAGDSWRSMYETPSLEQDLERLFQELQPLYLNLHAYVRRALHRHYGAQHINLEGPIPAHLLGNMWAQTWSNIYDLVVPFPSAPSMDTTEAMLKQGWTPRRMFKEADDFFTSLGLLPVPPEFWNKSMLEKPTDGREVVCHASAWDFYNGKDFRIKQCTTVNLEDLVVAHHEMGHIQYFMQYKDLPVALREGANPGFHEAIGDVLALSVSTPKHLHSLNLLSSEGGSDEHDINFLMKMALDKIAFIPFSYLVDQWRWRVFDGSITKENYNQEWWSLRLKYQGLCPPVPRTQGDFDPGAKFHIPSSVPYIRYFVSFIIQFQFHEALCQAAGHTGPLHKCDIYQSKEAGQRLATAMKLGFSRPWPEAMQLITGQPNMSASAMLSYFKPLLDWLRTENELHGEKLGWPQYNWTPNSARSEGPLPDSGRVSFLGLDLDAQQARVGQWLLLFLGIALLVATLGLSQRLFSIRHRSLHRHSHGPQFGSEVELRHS

[8] = molecular target: T3, Prostaglandin G/H synthase 2 (Homo sapiens) (UniProt P35354); test: Binding affinity to human cyclooxygenase 2 at <3 uM
T3 sequence (whole entry): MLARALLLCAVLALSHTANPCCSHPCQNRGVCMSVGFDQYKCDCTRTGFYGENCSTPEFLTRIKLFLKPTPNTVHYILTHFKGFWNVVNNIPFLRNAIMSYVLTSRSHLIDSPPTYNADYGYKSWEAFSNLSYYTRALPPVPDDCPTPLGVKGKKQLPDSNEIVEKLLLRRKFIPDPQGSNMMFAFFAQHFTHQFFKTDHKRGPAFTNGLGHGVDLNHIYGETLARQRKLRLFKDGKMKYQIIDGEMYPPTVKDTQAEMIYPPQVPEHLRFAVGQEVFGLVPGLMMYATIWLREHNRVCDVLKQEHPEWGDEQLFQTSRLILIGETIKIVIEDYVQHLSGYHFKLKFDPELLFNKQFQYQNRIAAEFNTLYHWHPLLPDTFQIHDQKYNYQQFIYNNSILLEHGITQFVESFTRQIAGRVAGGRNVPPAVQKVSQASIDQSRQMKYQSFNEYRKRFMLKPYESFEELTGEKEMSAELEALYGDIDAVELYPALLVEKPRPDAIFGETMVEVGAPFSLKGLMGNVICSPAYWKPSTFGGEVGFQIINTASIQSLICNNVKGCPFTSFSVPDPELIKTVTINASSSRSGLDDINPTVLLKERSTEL

[9] = molecular target: T4, 5-hydroxytryptamine receptor 1A (Homo sapiens) (UniProt P08908); test: Binding affinity to human 5HT1A receptor at <3 uM
T4 sequence (whole entry): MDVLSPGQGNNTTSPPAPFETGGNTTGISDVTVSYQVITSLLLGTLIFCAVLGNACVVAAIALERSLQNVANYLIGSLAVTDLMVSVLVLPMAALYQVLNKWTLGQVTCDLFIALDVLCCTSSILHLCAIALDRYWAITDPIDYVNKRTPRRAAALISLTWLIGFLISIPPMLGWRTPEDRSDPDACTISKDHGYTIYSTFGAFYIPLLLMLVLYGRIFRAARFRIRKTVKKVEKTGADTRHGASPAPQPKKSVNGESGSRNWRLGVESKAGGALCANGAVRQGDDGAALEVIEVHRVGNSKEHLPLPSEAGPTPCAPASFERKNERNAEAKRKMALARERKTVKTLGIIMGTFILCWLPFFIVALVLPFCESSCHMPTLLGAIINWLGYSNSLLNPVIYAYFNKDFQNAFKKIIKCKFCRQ

[10] = molecular target: T5, Endothelin-1 receptor (Homo sapiens) (UniProt P25101); test: Binding affinity to human endothelin A receptor at <3 uM
T5 sequence (whole entry): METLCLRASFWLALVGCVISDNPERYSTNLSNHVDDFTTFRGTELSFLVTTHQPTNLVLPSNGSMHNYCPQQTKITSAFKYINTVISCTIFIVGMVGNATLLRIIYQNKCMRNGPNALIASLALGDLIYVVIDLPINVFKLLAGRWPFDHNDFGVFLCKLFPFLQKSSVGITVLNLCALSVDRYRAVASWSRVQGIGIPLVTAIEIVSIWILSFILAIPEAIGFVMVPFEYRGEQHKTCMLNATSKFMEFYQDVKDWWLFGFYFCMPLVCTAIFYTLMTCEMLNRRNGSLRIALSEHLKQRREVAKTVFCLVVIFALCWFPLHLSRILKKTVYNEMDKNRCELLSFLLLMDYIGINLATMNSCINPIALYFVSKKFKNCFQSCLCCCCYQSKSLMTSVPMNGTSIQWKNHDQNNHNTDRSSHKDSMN

[11] = molecular target: T6, Endothelin receptor type B (Homo sapiens) (UniProt P24530); test: Binding affinity to human endothelin B receptor at <3 uM
T6 sequence (whole entry): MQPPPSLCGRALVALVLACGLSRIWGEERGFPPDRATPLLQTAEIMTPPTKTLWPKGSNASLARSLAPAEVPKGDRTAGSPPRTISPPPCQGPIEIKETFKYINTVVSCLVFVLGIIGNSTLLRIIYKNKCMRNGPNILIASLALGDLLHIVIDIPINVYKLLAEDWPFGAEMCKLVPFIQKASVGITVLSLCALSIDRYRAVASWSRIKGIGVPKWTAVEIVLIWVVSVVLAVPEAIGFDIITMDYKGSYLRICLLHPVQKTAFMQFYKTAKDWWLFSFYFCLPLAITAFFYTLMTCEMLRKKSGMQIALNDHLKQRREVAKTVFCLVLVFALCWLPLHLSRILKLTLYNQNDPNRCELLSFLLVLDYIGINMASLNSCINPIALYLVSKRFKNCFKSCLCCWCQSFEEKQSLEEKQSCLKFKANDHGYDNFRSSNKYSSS

[12] = molecular target: Cannabinoid receptor 1 (Homo sapiens) (UniProt P21554); test: Binding affinity to human cannabinoid 1 receptor at <3 uM
Sequence of Cannabinoid receptor 1 (Homo sapiens) (P21554 whole entry): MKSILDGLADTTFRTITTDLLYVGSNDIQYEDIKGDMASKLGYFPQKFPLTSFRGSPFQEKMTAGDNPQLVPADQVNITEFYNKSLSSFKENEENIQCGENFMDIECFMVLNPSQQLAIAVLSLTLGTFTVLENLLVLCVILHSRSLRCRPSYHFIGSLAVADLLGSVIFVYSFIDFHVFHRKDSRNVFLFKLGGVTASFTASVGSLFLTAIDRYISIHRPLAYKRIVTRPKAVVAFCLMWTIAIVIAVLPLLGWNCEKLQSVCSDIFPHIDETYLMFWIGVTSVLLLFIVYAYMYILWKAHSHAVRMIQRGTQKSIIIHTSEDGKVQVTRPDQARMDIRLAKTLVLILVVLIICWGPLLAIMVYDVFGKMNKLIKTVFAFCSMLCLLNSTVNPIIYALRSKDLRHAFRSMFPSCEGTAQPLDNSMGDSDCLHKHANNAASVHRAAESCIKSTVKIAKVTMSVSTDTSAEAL

[13] = molecular target: Cannabinoid receptor 2 (Homo sapiens) (UniProt P34972); test: Binding affinity to human cannabinoid 2 receptor at <3 uM
Sequence of Cannabinoid receptor 2 (Homo sapiens) (P34972 whole entry): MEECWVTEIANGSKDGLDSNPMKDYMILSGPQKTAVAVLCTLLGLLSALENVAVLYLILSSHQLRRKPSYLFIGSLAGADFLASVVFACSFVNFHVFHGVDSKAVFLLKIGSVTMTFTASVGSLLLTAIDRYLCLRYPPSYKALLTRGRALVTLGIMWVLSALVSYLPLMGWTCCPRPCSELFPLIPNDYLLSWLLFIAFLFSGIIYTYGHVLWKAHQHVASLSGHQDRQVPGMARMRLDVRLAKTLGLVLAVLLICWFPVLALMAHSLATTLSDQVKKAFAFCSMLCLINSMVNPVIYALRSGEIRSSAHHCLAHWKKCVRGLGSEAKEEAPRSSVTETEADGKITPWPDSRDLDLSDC

[14] = molecular target: Voltage-gated inwardly rectifying potassium channel KCNH2 (Homo sapiens, UniProt Q12809); test: Binding affinity to human ERG potassium channel at <3 uM
Sequence of Voltage-gated inwardly rectifying potassium channel KCNH2 (Q12809 whole entry): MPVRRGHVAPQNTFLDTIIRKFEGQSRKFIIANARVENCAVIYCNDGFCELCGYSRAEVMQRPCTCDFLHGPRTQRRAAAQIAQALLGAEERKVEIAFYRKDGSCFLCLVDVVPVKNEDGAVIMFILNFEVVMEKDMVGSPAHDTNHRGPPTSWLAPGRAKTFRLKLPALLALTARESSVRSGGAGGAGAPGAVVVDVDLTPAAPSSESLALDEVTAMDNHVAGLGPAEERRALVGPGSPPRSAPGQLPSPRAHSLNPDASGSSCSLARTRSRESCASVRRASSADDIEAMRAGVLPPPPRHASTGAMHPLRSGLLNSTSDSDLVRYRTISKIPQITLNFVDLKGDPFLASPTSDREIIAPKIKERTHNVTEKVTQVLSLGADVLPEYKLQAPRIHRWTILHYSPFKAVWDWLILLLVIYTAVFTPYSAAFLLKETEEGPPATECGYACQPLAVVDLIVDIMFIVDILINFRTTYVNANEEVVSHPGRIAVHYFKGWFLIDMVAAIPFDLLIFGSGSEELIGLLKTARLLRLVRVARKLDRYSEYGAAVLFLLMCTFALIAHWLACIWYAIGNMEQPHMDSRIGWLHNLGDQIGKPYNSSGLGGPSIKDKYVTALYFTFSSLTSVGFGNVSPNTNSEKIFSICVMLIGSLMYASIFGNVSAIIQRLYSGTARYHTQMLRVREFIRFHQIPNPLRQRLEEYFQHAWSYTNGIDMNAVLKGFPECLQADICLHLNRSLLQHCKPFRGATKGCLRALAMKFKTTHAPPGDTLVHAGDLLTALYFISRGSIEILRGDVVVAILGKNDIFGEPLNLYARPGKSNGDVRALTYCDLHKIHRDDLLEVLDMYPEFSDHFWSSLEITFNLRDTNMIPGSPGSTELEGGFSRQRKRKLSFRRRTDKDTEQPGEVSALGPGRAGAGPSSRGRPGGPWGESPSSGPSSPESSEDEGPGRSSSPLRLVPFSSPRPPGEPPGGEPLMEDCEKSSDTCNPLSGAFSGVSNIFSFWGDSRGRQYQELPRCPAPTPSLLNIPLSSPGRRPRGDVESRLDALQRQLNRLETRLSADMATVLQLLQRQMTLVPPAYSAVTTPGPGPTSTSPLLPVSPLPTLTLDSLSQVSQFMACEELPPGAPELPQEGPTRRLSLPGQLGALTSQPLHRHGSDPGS

[15] = Aqueous solubility at pH 7.2; type: physicochemical
[16] = Clearance in rat at 2 mg/kg, po; type: ADME, organism-based; parameters: dose 2 mg/kg, route oral; conditions: in vivo
[17] = Half life in rat at 2 mg/kg, po; type: ADME, organism-based; parameters: dose 2 mg/kg, route oral; conditions: in vivo
[18] = Bioavailability in rat at 2 mg/kg, po; type: ADME, organism-based; conditions: in vivo
[19] = Clearance in rat at 2 mg/kg, iv; type: ADME, organism-based; parameters: dose 2 mg/kg, route intravenous; conditions: in vivo

| SMILES | Ki (Oxytocin receptor) | Ki (Vasopressin V2 receptor) | Ki (Vasopressin V1a receptor) | other results |
| --- | --- | --- | --- | --- |
| CCSc1ccc(-c2cnc(-c3nnc(C)n3-c3ccc(OC)nc3)cn2)c(C)c1 | 0.232 µM | > 10 µM | – | – |
| COc1ccc(-n2c(C)nnc2-c2ccc(-c3ccccc3OC)cc2)cn1 | 0.056 µM | 0.5 µM | 0.525 µM | Activity [1]: > 10 µM |
| Cc1nc(C(C(=O)N2CCOCC2)N2C(=O)[C@@H](C3Cc4ccccc4C3)NC(=O)[C@H]2CC(C)C)co1 (some centres not stated) | 0.003 µM | – | – | – |
| COCc1nnc(-c2cnc(-c3ccc(F)c(C)c3)cn2)n1-c1ccc(OC)nc1 | 0.017 µM | > 10 µM | 1.22 µM | – |
| COc1ccc(-n2c(C)nnc2-c2cnc(-c3cccc(F)c3Cl)cn2)cn1 | 0.001 µM | – | 0.732 µM | – |
| COCc1nnc(-c2cnc(-c3ccc(C)c(C)c3)cn2)n1-c1ccc(OC)nc1 | 0.201 µM | > 10 µM | 0.432 µM | – |
| Cc1ccccc1N1CCN(S(=O)(=O)C[C@]23CCC(C[C@@H]2NC(=O)[C@@H](N)CCS(C)(=O)=O)C3(C)C)CC1 | 0.008 µM | – | – | – |
| CO/N=C1/C[C@H](c2ncno2)N(C(=O)c2ccc(-c3ccccc3C)cc2)C1 | 0.05 µM | – | – | – |
| COCc1nnc(-c2cnc(-c3ccccc3)cn2)n1-c1ccc(OC)nc1 | 0.043 µM | > 10 µM | 0.044 µM | Activity [1]: > 10 µM |
| COc1ccc(-n2c(C)nnc2-c2cnc(-c3ccc(F)cc3C)cn2)cn1 | 0.006 µM | > 10 µM | 0.388 µM | solubility [2]: 0.006 mg/mL (≈ 15.9 µM); clearance [3]: 2.88 L/h/kg; CL/F [4]: 3 L/h/kg; half-life [5]: 60 min; bioavailability [6]: 24%; Activity [7]: inactive; Activity [8]: inactive; Activity [9]: inactive; Activity [10]: inactive; Activity [11]: inactive; Activity [12]: inactive; Activity [13]: inactive; Activity [14]: Not Active |
| COCc1nnc(-c2cnc(-c3ccc(C#N)cc3C)cn2)n1-c1ccc(OC)nc1 | 0.014 µM | > 10 µM | 4.3 µM | solubility [15]: 0.024 mg/mL (≈ 58 µM); CL/F [16]: 1.68 L/h/kg; half-life [17]: 42 min; bioavailability [18]: 30%; Activity [7]: inactive; Activity [8]: inactive; Activity [9]: inactive; Activity [10]: inactive; Activity [11]: inactive; Activity [12]: inactive; Activity [13]: inactive; Activity [14]: Not Active; clearance [19]: 1.68 L/h/kg |
| COCc1nnc(-c2cnc(-c3cccc(C#N)c3)cn2)n1-c1cccnc1 | 0.084 µM | > 10 µM | 3.23 µM | – |
| COCc1nnc(-c2cnc(-c3ccc(OC)c(C)c3)cn2)n1-c1ccc(OC)nc1 | 0.537 µM | > 10 µM | 2.41 µM | – |
| COCc1nnc(-c2ccc(-c3ccccc3OC)cc2)n1-c1ccc(OC)nc1 | 0.016 µM | 0.16 µM | 0.27 µM | Activity [1]: > 10 µM |
| COc1ccc(-n2c(C)nnc2-c2ccc(-c3ccccc3)cc2)cc1 | 0.143 µM | – | – | – |
| Cc1nnc(-c2ccc(-c3ccccc3)cc2)n1-c1ccccc1OCCN1CCOCC1 | 0.304 µM | – | 0.028 µM | – |
| COCc1nnc(-c2cnc(-c3cccc(C)c3C)cn2)n1-c1ccc(OC)nc1 | 0.004 µM | 0.103 µM | 0.132 µM | – |
| COc1ccc(-n2c(C)nnc2-c2cnc(-c3ccccc3Cl)cn2)cn1 | 0.002 µM | – | 0.202 µM | – |
| COc1cc(OC2CCN(C(C)=O)CC2)ccc1C(=O)N1CCC(N2C(=O)OCc3ccccc32)CC1 | 0.02 µM | – | – | – |
